# Data reported in patent US20140271742A1, “SKIN TANNING USING PEPTIDES AND OTHER COMPOSITIONS” (priority 2013, published 2014).
# What was measured:
# [1] = Laser Doppler capillary blood flow in humans, 10,000 ppm NO in closed Hilltop chamber (Example 5); type: in vivo, human; details: applied to the skin at 1/10% in alcohol
# Description: The formulation used in these studies contained nitric oxide dispersed in a lipid matrix. […] Nitric oxide is a very rapid acting molecule, and these studies used a system that employed laser Doppler with a covered chamber. The formulation was placed into the chamber and then attached to the skin by an adhesive layer on the covering. This provided a stable measuring device as determined by multiple normal evaluations of the capillary blood flow without treatment of nitric oxide.
# A known positive control, methyl nicotinate, was applied to the skin at a concentration of 1/10% in alcohol. […] The vascular dynamics are such that when the blood vessels dilate physical parameters follow Bernoulli's law. This states that as one increases the diameter of a tube containing a liquid to flow will increase but the pressure and the speed of the liquid will decrease. The laser Doppler device accurately measured these parameters.
# The test product was labeled as 10,000 ppm NO (nitric oxide). The study participants had 100 mg of the test product applied in a closed Hilltop chamber on the forearm. […]
# A Moor Instruments DRT4 Laser Doppler Blood Flow Monitor (Devon, England) was used in these studies. The laser Doppler technique measured blood flow in the microcapillaries of the skin that are close to the skin surface and the blood flow in underlying arterioles and venules that help to regulate skin temperature. […]
# [2] = Laser Doppler circulation in five human subjects, NO creams and controls (Example 8); type: in vivo; details: positive control formulation containing 0.1% methyl nicotinate
# Description: This example illustrates delivery of nitric oxide formulations to five human subjects, using procedures and formulations similar to those discussed in Example 5. Each person served as their own control for the testing. A Moor Instruments Laser Doppler was used to determine circulation. […] The formulations used produce positive, almost immediate results when applied to the skin which, in these studies, was manifested by vasodilatation of the cutaneous vascular system.
# For each subject, the following creams were applied: a negative control formulation (containing no NO), 0.010 gram of a 10,000 ppm NO formulation, 0.020 gram of a 10,000 ppm NO formulation, and a positive control formulation containing 0.1% methyl nicotinate. The formulations were prepared using procedures similar to those discussed in Example 1.
smiles,measurement,setting,value
COC(=O)c1cccnc1 [methyl nicotinate],Laser Doppler response of positive control,[1],rapid response typical of the vasodilator
same,Vasodilatation (laser Doppler),[2],vasodilatation was observed
